The text below walks through data of patent US10251860B2, “Compounds for bone healing” (University of Pittsburgh—Of the Commonwealth System of …, priority 2015, dated 2019).

Series [1] concerns bone marrow stromal cell line derived from C57BL/6NTac mice. The series can be described thus: In vitro clonogenic radiation survival curves. It counts as cell-based, mouse. The conditions noted are these: 0 to 8 Gy. The method, then:
FIG. 12A is a graph of surviving fraction versus radiation dose, illustrating the in vitro radioprotection and mitigation of bone marrow stromal cells. In vitro survival curves were performed using a bone marrow stromal cell line derived from C57BL/6NTac mice. Cells were incubated in 100 μM MMS350 for one hour before irradiation or was added to the cells 10 min after irradiation. Cells were irradiated to doses ranging from 0 to 8 Gy, plated in 4 well tissue culture plates, incubated for 7 days at 37° C. in a humidified CO2 incubator, and stained with crystal violet. Colonies of greater than 50 cells were counted and analyzed using a linear quadratic model or single-hit, multi-target model.
The murine C57BL/6 bone marrow stromal cell line (Epperly M W, Sikora C A, Defilippi S, Gretton J E, Greenberger J S. Bone marrow origin of myofibroblasts in irradiation pulmonary fibrosis. Am J Resp Molecular Cell Biology 2003; 29:213-224) and its use in clonogenic radiation survival curves has been described (Epperly M W, Gretton J E, Bernarding M, Nie S, Rasul B, Greenberger J S. Mitochondrial localization of copper/zinc superoxide dismutase (Cu/ZnSOD) confers radioprotective functions in vitro and in vivo. Radiation Research 2003; 160:568-578).
Cell lines were irradiated at dose rate of 70 cGy per minute using a Cesium Gamma Cell Irradiator according to published methods. […]

Series [2] relates to 32D cl 3 cells. Briefly: Irradiated 32D cl 3 cells, cell count and viability. It counts as cell-based, murine. The conditions noted are these: 10 μM, 0-7 Gy, day 3 or 5 after irradiation. How it is done:
FIGS. 10A-10D provide data from a screening experiment where 32D cl 3 cells were irradiated to doses of 0, 1, 3, 5, or 7 Gy and placed in T25 flasks. Either JP4-039 or MM350 were added at 10 μM and incubated in a CO2 incubator at 37° C. At Day 3 or 5 after irradiation, the cells were counted and the viability determined.

In series [3] the test system is 32D cl 3 cells. Briefly: 32D cl 3 colony formation in semisolid medium after irradiation. It counts as cell-based, murine. The conditions noted are these: delivered before or after irradiation.
Series [4] relates to C57BL/6NTac mice, 20 Gy thoracic irradiation. Briefly: Radiation pulmonary fibrosis after 20 Gy thoracic irradiation. It counts as in vivo, mouse. The conditions noted are these: MMS350 in drinking water. An excerpt:
For lung irradiation, mice were irradiated to the thoracic cavity with shielding of the head and neck region and abdomen and lower body according to published methods. Animals received 20 Gy single fraction thoracic irradiation and were then maintained according to IACUC directed laboratory conditions. Mice were sacrificed at serial time points after thoracic irradiation including pre-irradiation, days 2, 7, 14, 28, 50, 75, 100, 110, 150 and 200 post-irradiation. Lungs were removed and sagittal sections assayed for percent of lung replaced by fibroblasts and organizing alveolitis according to published methods. Representative lung lobes from the same animals were tested by RT-PCR for level of detectable message for inflammatory cytokines, redox sensitive promoters, and levels of MnSOD.
Lungs from irradiated and luc+ cell line injected mice were removed and serial sectioned. Sections were stained for luc+, GFP+ cells, BrdU incorporation, and for quantitation of percent lung replaced by fibrosis (organizing alveolitis) according to published methods.
Mice were injected intra-peritoneally with MMS350 or JP4-039 (GS-nitroxide) in 50% cremphor/50% ethanol according to published methods. For long-term administration of MMS350, the drug was administered in water bottles with bottles changed every 7 days. The dose of drug per bottle was 100 μM MMS350 starting on day 88. The estimated total amount consumed by each animal daily was 10.9 μg based on a mouse drinking 5 ml of water per day. Chimeric mice irradiated to the thoracic cavity were placed 30 days later on MMS350 in water containing 100 mM MMS350. On day 88 after thoracic irradiation of non-chimeric mice, mice were placed on […] MMS350 in drinking water.

Series [5] relates to C57BL/6NTac female mice, tibia holes. The series can be described thus: Bone wound healing in drilled mouse tibias (high resolution CT). It counts as in vivo. The conditions noted are these: day 21. How it is done: Eighteen C57BL/6NTac female mice were divided into 2 groups of 9 mice. The first group was placed on water containing 400 μM MMS350. One week later the MMS350 mice were injected IP with 20 mg/kg MMS350 in water 15 minutes before irradiation. The control mice and the MMS350 treated mice were anesthetized with Nembutal and the right hind leg was irradiated to 20 Gy with the remainder of the mouse shielded from the irradiation. Twenty-four hours later holes were drilled into the tibias of all the mice. The MMS350 treated mice were kept on the MMS350 with the water changed weekly. Twenty-one days later the mice were sacrificed and both tibias removed, and fixed. The tibias were imaged using a high resolution CT. The holes in the tibias were measured and the volume of the holes determined.

In series [6] the test system is 320 cl 3 murine hematopoietic cells. The series can be described thus: Apoptotic markers after 5 Gy irradiation in vitro. It counts as cell-based. The conditions noted are these: 24 hours after irradiation. From the text:
Caspase-3 cleavage and Parpl cleavage illustrated the effects on apoptosis. […] Materials and Methods: Overall Design of Studies (Table 7).

Series [7] is described as follows: Compound storage in 25% w/w solutions of 3 and NMP. It counts as physicochemical. The conditions noted are these: 25% w/w 3 in NMP, −20° C. The method, then: Because sulfoxide 3 is a solid, it would have to be mixed with an appropriate water-soluble cosolvent to act as a compound storage additive. NMP was chosen for exploring this potential application due to its thermal stability and low toxicity. […] The compound test set (FIG. 2) was stored in 25% w/w solutions of 3 and NMP for 6 weeks at −20° C.

Entries after “also recorded” stand apart in the source; their conditions may differ.

In series [1] (100 μM MMS350 added 10 min after irradiation, control 1.9±0.1, p=0.0444), `CC1(C[S+]([O-])CC2(C)COC2)COC1` [Compound 3, 3,3′-Sulfinylbis(methylene)bis(3-methyloxetane)] returned a D0 of 2.4±0.3. Further, the “shoulder on the survival curve (ñ)” value in series [1] (100 μM MMS350 for one hour before irradiation, control 5.8±1.1, p=0.0039) is 14.9±2.9. The “number of cells and viability” value in the series with 32D cl 3 cells [2] is “comparable to JP4-039”. In the series with 32D cl 3 cells [3], the “radiation protection and mitigation of colony forming cells” value is “significant effectiveness”. In series [4] (20 Gy thoracic irradiated mice), the survival result is given as “significantly increased survival”. For the same compound, the pulmonary fibrosis entry in series [4] (20 Gy thoracic irradiation) is listed as “decreased radiation pulmonary fibrosis; also recorded: significant decrease in pulmonary fibrosis”. In series [4] (thoracic-irradiated mice, −MMS350 20.8 ± 3.9, p < 0.0001), the “Percent Pulmonary Fibrosis” value stood at 3.6 ± 1.1%. The “diameter of tibia hole” value in series [5] (0 Gy tibia vs control 0 Gy, 400 μM in water plus 20 mg/kg IP) is listed as “significantly smaller”; in series [5] (20 Gy irradiated tibia vs control 20 Gy), “significantly smaller”. The “volume of tibia hole” value in series [5] (0 Gy+ MMS350 vs control 20 Gy irradiated tibia) and in series [5] (20 Gy+ MMS350 vs control 20 Gy irradiated tibia) was “significantly smaller” each time. Also, the “1C3-1/11 conversion (autophagy)” value in series [6] (5 Gy) is reported as “no difference”. Further, the “H2AX phosphorylation (DNA strand break repair)” value in series [6] (5 Gy) is recorded as “more prominent with MMS-350 than JP4-038”. Also, the “mitochondrial markers of apoptosis” value in series [6] (one-hour before or 30-minutes after 5 Gy) is on record as “reduced mitochondrial markers of apoptosis”. Moreover, in series [7], the precipitation on storage result is on record as “partly precipitated from the solution”.
